Measurements published in patent US12419956B2, “Controlled drug release system of photoresponsive nanocarriers, methods of making and using thereof” (THE UNIVERSITY OF HONG KONG, priority 2020, dated 2025).

Tests used:
[1] = Photocleavage under 505 nm green LED light, determined by HPLC; assay type: physicochemical; settings: free DTAEA in 50% acetonitrile/H2O, 50 mW/cm^2, 1 min
Procedure: The photocleavage mechanism of coumarin carbamate derivatives was reported as carbocation formation following with the addition of —OH group in aqueous solutions (FIG. 6a).^9 To quantitatively measure the photocleavage rate of free DTAEA, quartz cuvettes containing DTAEA in 50% acetonitrile/H2O was irradiated with 505 nm green LED light. At predetermined time points, the remaining DTAEA and released DEAdcCM were determined by high performance liquid chromatography (HPLC). […] The similar photocleavage process in DTAEA NPs took about 5 minutes for the completely consumption of DTAEA (FIG. 6c), which was slightly slow down compared to free DTAEA in the mixture of acetonitrile and water. […] Based on the photocleavage performance of DTAEA and DTNPs, the irradiation duration was set to be no less than 5 min with 505 nm green LED light at 50 mW/cm^2.

[2] = Systemic toxicity in treated tumor-bearing mice: body weight and H&E histology; assay type: in vivo, BALB/c nude mice; settings: drug administration period (Day 0 to Day 10), 5 mg/kg I.V.
Procedure: (§1) Generally, WERI-Rb-1 cells were injected slowly into the vitreous cavity at the right eyes of Bulb/c nude mice for the tumor implantation. […] The light irradiation was performed at the right eyes immediately after injection. […] To evaluate the biodistribution, the mice were euthanized after the above treatment, and their eyes (both sides), heart, lung, liver, spleen and kidney were further exteriorized for ex vivo fluorescence imaging. […] Seven days after the intraocular injection of WERI-Rb-1-GFP-luc cells, the luminescence signals from the cells can be determined by in vivo imaging system for in situ monitoring of orthotopic ocular tumors. […] The dosage of drug administration was precisely controlled based on the body weight of mice and set as 5 mg/kg body weight. The I.V. injection of formulations was applied every two days for five times. […] During the treatment, bioluminescence from the tumors was detected for tumor growth monitoring. […] Considering individual differences, tumor growth curves (FIG. 14b) of different groups were obtained by setting the bioluminescence intensity on the day before treatment (Day 0) as the origin and determining the quantitative changes in the subsequent days. […] The histological patterns of tumor-bearing retina and main organs were studied by hematoxylin and eosin (H&E) staining (FIG. 15 and FIG. 16).

[3] = system: WERI-Rb-1-GFP-luc orthotopic tumor; experiment: Therapeutic effect on orthotopic WERI-Rb-1-GFP-luc tumors, bioluminescence; assay type: in vivo, BALB/c nude mice; settings: Day 25; 5 mg/kg I.V. every two days for five times; no irradiation
Procedure: as §1

[4] = system: human umbilical vein endothelial cells (HUVEC); experiment: Light-triggered cellular uptake in HUVEC cells, fluorescence microscopy; assay type: cell-based
Procedure: We further investigated the cellular uptake of the photo-released DOX by fluorescence microscopy and flow cytometry. In this work, human umbilical vein endothelial cells (HUVEC) and human retinoblastoma cells (WERI-Rb-1) were employed to investigate the cellular uptake. The cells were treated with various formulations, including free DOX, DOX/DTNPs and DOX/DTNPs+light irradiation (hv).

Row | Structure (SMILES) | DTAEA cleaved [1] | body weight decrease [2] | increase of bioluminescence intensity in eyes, compared to Day 0 [3] [folds] | red fluorescence intensity (DOX) in cells ([4]; HUVEC, no irradiation) | intracellular distribution of DOX fluorescence ([4]; without irradiation)
1 | CCN(CC)c1ccc2c(c1)OC(=C(C#N)C#N)C=C2COC(=O)NCCN(CCNC(=O)OCC1=CC(=C(C#N)C#N)Oc2cc(N(CC)CC)ccc21)CCNC(=O)OCC1=CC(=C(C#N)C#N)Oc2cc(N(CC)CC)ccc21 [DTAEA, (DEAdcCM)3-TAEA] | More than 90% | – | – | – | –
2 | COc1cccc2c1C(=O)c1c(O)c3c(c(O)c1C2=O)C[C@@](O)(C(=O)CO)C[C@@H]3O[C@H]1C[C@H](N)[C@H](O)[C@H](C)O1 [free DOX, doxorubicin] | – | about 10% | 64.0 | as high as the irradiated group | observed in the cell nuclei
